Source: patent US7687508B2, “Cyclic derivatives as modulators of chemokine receptor activity” (Bristol-Myers Squibb Company, priority 2006, dated 2010)

Columns and labels:
human CCR2 [1] = biological target: T1, human CCR2 (Homo sapiens, UniProt P41597); test: Human peripheral blood mononuclear cell binding (CCR2 binding), 125I-human MCP-1 tracer; design: hPBMCs were isolated from human leukopak (Biological Specialty Inc.); endogenous in cells; host or cells: human peripheral blood mononuclear cells from leukopak (Biological Specialty Inc.); conditions: metabolite examples; hPBMCs, 125I-MCP-1; read-out: PBMC Binding IC50
T1 sequence (P41597 1-360 isoform P41597-2): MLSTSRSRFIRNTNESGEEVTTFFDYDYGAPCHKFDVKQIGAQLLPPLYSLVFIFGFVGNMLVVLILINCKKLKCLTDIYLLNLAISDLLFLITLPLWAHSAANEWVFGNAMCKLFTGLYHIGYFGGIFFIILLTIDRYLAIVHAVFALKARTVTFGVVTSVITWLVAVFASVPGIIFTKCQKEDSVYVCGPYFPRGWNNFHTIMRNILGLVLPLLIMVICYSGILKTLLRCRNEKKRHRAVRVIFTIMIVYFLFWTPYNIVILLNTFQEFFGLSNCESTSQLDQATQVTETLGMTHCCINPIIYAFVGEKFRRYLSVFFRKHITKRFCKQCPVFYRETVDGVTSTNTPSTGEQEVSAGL
Method: See also: Yoshimura et al., J. Immunol. 1990, 145, 292. The human CCR2 binding assay was established with human peripheral blood mononuclear cells (hPBMCs) using ^125I-human MCP-1 as the tracer ligand. hPBMCs were isolated from human leukopak (Biological Specialty Inc.) using a standard protocol with Ficoll-Hypaque (Mediatech Cellgro). Isolated hPBMCs were washed and diluted to 1×10^7/ml in binding buffer (RPMI-1640, 0.1% BSA, 20 mM Hepes, pH 7.4). ^125I-MCP-1 (NEN/Perk Elmer) was diluted to 0.45 nM in binding buffer. The compound was diluted in binding buffer at 3-fold the final concentrations used in the binding assay. The binding assay was performed using a 96-well filter plate (Millipore). Total ^125I-MCP-1 binding was assessed as follows: to each reaction of a total volume of 150 μl were added 5×10^5 cells, 0.15 nM […], and compound such that the final concentration ranged from 0 to 100 nM. The plate was incubated at room temperature for 30 minutes followed by three washes with RPMI-1640, 0.1% BSA, 0.4 M NaCl, 20 mM Hepes, pH 7.4 using a vacuum manifold filtration (Millipore). After washing, the plate was air-dried for 60 minutes at room temperature. This was followed by adding 25 μl of Microscint 20 into each well. The plate was sealed and counted on the Trilux for 1 minute. Non-specific binding was determined in the presence of 300 nM cold MCP-1 (PeproTech Inc.). Specific 1-MCP-1 was calculated as the difference between total and non-specific binding. All conditions were tested in duplicate.

human CCR2 [2] = biological target: T1, human CCR2; test: THP-1 binding (CCR2, 125I-human MCP-1 tracer); design: THP-1 human monocytic leukemic cell line, which expresses endogenous CCR2; endogenous in cells; host or cells: THP-1 human monocytic leukemia cells; conditions: metabolite examples; THP-1 cells, 125I-MCP-1
Method: The human CCR2 binding assay was also established with the THP-1 human monocytic leukemic cell line, which expresses endogenous CCR2, using 125I-human MCP-1 as the tracer ligand. Radioligand competition binding assays were used for assessment of binding affinity of test compounds to the CCR2 receptor. For radioligand competition studies, 100 μl containing 2.5×10^5 THP-1 cells/well (in assay buffer containing 50 mM HEPES, pH7.4, 5 mM MgCl2, 1 mM CaCl2 and 0.5% BSA) were added to 96-well assay plates containing test compound in 3-fold serial dilution, with final concentrations ranging from […]. Subsequently, 50 μl ^125I-MCP-1 radioligand at a final concentration of 0.2 nM in assay buffer were added to the reaction. After a 90 minute incubation period at room temperature, the binding reaction was terminated by harvesting on GF/B filter plates (PerkinElmer Cat. No. 6005177) followed by washing with ice-cold wash buffer (50 mM HEPES, pH 7.4, 0.1% BSA, 0.5 M NaCl) to remove unbound ligand. After washing, the plate was dried for 45 minutes at 60° C. followed by addition of 40 μl MicroScint 20 scintillation fluid, sealed and analyzed by the Packard TopCount reader. […] The competition data was plotted as a percentage inhibition of radioligand specific bound in the absence of test compound (percent of total signal). After correcting for non-specific binding, IC50 values were determined.

IC50 (human CCR2 [1]): 3.46 ± 1.1 nM | IC50 (human CCR2 [2]): 4.22 ± 1.22 nM
SMILES: CC(=O)N[C@@H]1C[C@H](N)CC[C@@H]1N1CC[C@H](Nc2ncnc3ccc(C(F)(F)F)cc23)C1=O [Example 4, N-((1R,2S,5R)-5-amino-2-((3S)-2-oxo-3-((6-(trifluoromethyl)-4-quinazolinyl)amino)-1-pyrrolidinyl)cyclohexyl)acetamide]
